For series [1] the following is noted: orally administered to rat; cited from earlier work.
For series [2] the following is noted: 60° C. temperature and 75% relative humidity; resulting in gum type or liquefied form. The source says:
European Patent No. 281,459 B1 and U.S. Pat. No. 4,847,265 disclose a number of acid addition salts of clopidogrel prepared using various inorganic or organic acids.

Our source for the LD50 and Hygroscopicity values is patent publication US7470707B2, “Crystalline monohydrate clopidogrel naphthalenedisulfonate and process of preparation” (Hanmi Pharm. Co., Ltd, priority 2004, dated 2008).

Counter-ions that a name gives are not always drawn.

With `O=S(=O)(O)c1cccc2c(S(=O)(=O)O)cccc12` [1,5-naphthalenedisulfonic acid], the LD50 in series [1] is 2,420 mg/kg.

In the case of `Br` [hydrobromide], in series [2], the Hygroscopicity result was “highly hygroscopic”.

With hydrochloride, the Hygroscopicity result in series [2] is on record as “highly hygroscopic”.
